According to patent US10344019B2 (priority 2010, dated 2019):
Like-named read-outs stand apart in the source and are kept apart here.

What was measured:
Format in all cases: cell-based
[1] = system: HCV 1a RLuc cells (dicistronic genotype 1a H77 replicon, RLuc reporter); experiment: microbe, parasite or virus in culture; conditions: Hepatitis C virus, read-out: 1a
Outline: (§1)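 Replicon cells stably carrying the listed RLuc-encoding dicistronic replicons were seeded and treated with DMSO serial dilutions of compound (10 mM stocks) diluted into culture medium. After 72 h, cells were lysed and Renilla luciferase activity measured. EC50 was derived by non-linear regression.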

[2] = system: HCV 1b RLuc cells (dicistronic genotype 1b Con1 replicon, RLuc reporter); experiment: microbe, parasite or virus in culture; conditions: Hepatitis C virus, read-out: 1b (nM)
Outline: as §1

[3] = system: HCV 2a JFH-1 Rluc cells (dicistronic genotype 2a JFH-1 replicon, RLuc reporter); experiment: microbe, parasite or virus in culture; conditions: Hepatitis C virus, read-out: 2a JFH
Outline: as §1

[4] = system: HCV 2b Rluc cells (NS5A chimeric genotype 2a JFH-1 replicon with genotype 2b MD2b-1 NS5A gene, M31 present); experiment: microbe, parasite or virus in culture; conditions: Hepatitis C virus, read-out: 2b
Outline: as §1

[5] = system: HCV 3a RLuc cells (NS5A chimeric genotype 1b Con1 replicon with consensus genotype 3a NS5A gene); experiment: microbe, parasite or virus in culture; conditions: Hepatitis C virus
Outline: as §1

[6] = system: HCV 4a Rluc cells (NS5A chimeric genotype 1b Con1 replicon with genotype 4a NS5A gene); experiment: microbe, parasite or virus in culture; conditions: Hepatitis C virus, read-out: 4a
Outline: as §1

[7] = system: HCV 2a Rluc cells (NS5A chimeric genotype 2a JFH-1 replicon with genotype 2a J6 strain NS5A gene, M31 present); experiment: HCV replicon reporter assay, genotype 2a J6 (M31 present); conditions: Hepatitis C virus, read-out: 2a J6
Outline: as §1

[8] = read-out: 3a, genotype 3a replicon
[9] = genotype 1a H77 replicon, RLuc reporter
[10] = genotype 2a JFH-1 replicon, RLuc reporter
[11] = read-out: 3a, genotype 3a NS5A chimeric 1b Con1 replicon

| Structure (SMILES) | EC50 ([1]; genotype 1a H77 RLuc replicon) [nM] | EC50 [2] [nM] | EC50 ([3]; genotype 2a JFH-1 RLuc replicon) [nM] | EC50 [4] [nM] | EC50 ([5]; read-out: 3a, genotype 3a NS5A chimeric replicon) [nM] | EC50 [6] [nM] | EC50 [7] [nM] | EC50 ([1]; genotype 1a replicon) [nM] | EC50 ([3]; genotype 2a JFH-1 replicon) [nM] | EC50 [5, 8] [nM] | EC50 [1, 9] [nM] | EC50 [3, 10] [nM] | EC50 [5, 11] [nM] | EC50 ([1]; 72 h, Table 1, genotype 1a H77 replicon, 72 hours) [nM] | EC50 ([2]; 72 h) [nM] | EC50 ([3]; 72 h, Table 1, genotype 2a JFH-1 replicon, 72 hours) [nM] | EC50 ([5]; read-out: 3a, Table 1, genotype 3a NS5A chimeric replicon) [nM] |
| --- | --- | --- | --- | --- | --- | --- | --- | --- | --- | --- | --- | --- | --- | --- | --- | --- | --- |
| COC(=O)N[C@H](C(=O)N1[C@@H]2C[C@@H]2C[C@H]1c1ncc(-c2cc3c4c(c2)OCc2cc(-c5cnc([C@@H]6C[C@H]7C[C@H]7N6C(=O)[C@H](NC(=O)OC)c6ccccc6)[nH]5)cc(c2-4)OC3)[nH]1)C(C)C [Example 501] | 0.001 to 0.999 | 0.021 | 0.001 to 0.999 | 1 to 44 | 0.001 to 0.99 | 0.001 to 0.99 | > 44 | – | – | – | – | – | – | – | – | – | – |
| COC(=O)N[C@H](C(=O)N1CCC[C@H]1c1ncc(-c2ccc(-c3ccc4c(ccc5nc([C@@H]6[C@H]7CC[C@H](C7)N6C(=O)[C@H](NC(=O)OC)c6ccccc6)[nH]c54)c3)cc2)[nH]1)C(C)C [Example 410] | – | 0.018 | – | > 44 | – | 0.001 to 0.99 | 1 to 44 | 0.001 to 0.999 | 0.001 to 0.999 | 0.001 to 0.99 | – | – | – | – | – | – | – |
| COC(=O)N[C@@H](C(=O)N1C[C@@H](OC)C[C@H]1c1ncc(-c2ccc(-c3ccc4cc(-c5cnc([C@@H]6CCCN6C(=O)[C@H](C(C)C)N(C)C(=O)OC)[nH]5)ccc4c3)cc2)[nH]1)c1ccccc1 [Example 122] | – | 0.009 | – | > 44 | – | 0.001 to 0.99 | > 44 | – | – | – | 0.001 to 0.999 | 0.001 to 0.999 | 0.001 to 0.99 | – | – | – | – |
| COC(=O)N[C@H](C(=O)N1CCC[C@H]1c1ncc(-c2ccc3c4c(ccc3c2)-c2ccc(-c3cnc([C@@H]5CCCN5C(=O)[C@H](NC(=O)OC)c5ccccc5)[nH]3)cc2CO4)[nH]1)[C@@H](C)OC [Example 16] | – | – | – | 1 to 44 | – | 0.001 to 0.99 | 1 to 44 | – | – | – | – | – | – | 0.001 to 0.999 | 0.011 | 0.001 to 0.999 | 0.001 to 0.99 |
| COC[C@H]1C[C@@H](c2nc3ccc4cc(-c5ccc6c(ccc7nc([C@@H]8[C@@H]9CC[C@@H](C9)N8C(=O)[C@@H](NC(=O)OC)C(C)C)[nH]c76)c5)ccc4c3[nH]2)N(C(=O)[C@H](NC(=O)OC)c2ccccc2)C1 [Example 451] | – | 0.07 | – | 0.001 to 0.999 | – | 0.001 to 0.99 | 0.001 to 0.999 | 0.001 to 0.999 | 0.001 to 0.999 | 0.001 to 0.99 | – | – | – | – | – | – | – |
| COC(=O)N[C@H](C(=O)N1CCC[C@H]1c1nc2ccc3cc(-c4ccc5c(ccc6nc([C@@H]7CCCN7C(=O)[C@H](NCC(F)(F)F)c7ccccc7)[nH]c65)c4)ccc3c2[nH]1)C(C)C [Example 403] | – | 0.014 | – | 0.001 to 0.999 | – | 0.001 to 0.99 | 0.001 to 0.999 | 0.001 to 0.999 | 0.001 to 0.999 | 0.001 to 0.99 | – | – | – | – | – | – | – |
| COC[C@H]1C[C@@H](c2ncc(-c3ccc(-c4ccc5c(ccc6nc([C@@H]7CCCN7C(=O)[C@@H](NC(=O)OC)C(C)C)[nH]c65)c4)cc3)[nH]2)N(C(=O)[C@@H](NC(=O)OC)C(C)C)C1 [Example 441] | – | 0.03 | – | > 44 | – | 0.001 to 0.99 | 1 to 44 | 0.001 to 0.999 | 0.001 to 0.999 | 0.001 to 0.99 | – | – | – | – | – | – | – |
| COC(=O)N[C@H](C(=O)N1CCC[C@H]1c1nc2ccc3cc(-c4ccc5c(ccc6nc([C@@H]7C[C@@H]8CCC[C@@H]8N7C(=O)[C@@H](NC(=O)OC)C(C)C)[nH]c65)c4)ccc3c2[nH]1)C(C)C [Example 428] | – | 0.011 | – | 1 to 44 | – | 0.001 to 0.99 | 0.001 to 0.999 | 0.001 to 0.999 | 0.001 to 0.999 | 0.001 to 0.99 | – | – | – | – | – | – | – |
| CCC(=O)N[C@@H](C(=O)N1CCC[C@H]1c1ncc(-c2cc3c4c(c2)OCc2cc(-c5cnc([C@@H]6CCCN6C(=O)[C@H](NC(=O)CC)c6ccccc6)[nH]5)cc(c2-4)OC3)[nH]1)c1ccccc1 [Example 450] | – | 0.427 | – | 0.001 to 0.999 | – | 0.001 to 0.99 | 0.001 to 0.999 | 0.001 to 0.999 | 0.001 to 0.999 | 0.001 to 0.99 | – | – | – | – | – | – | – |
| COC(=O)N[C@H](C(=O)N1CCC[C@H]1c1ncc(-c2ccc3cc(-c4ccc(-c5cnc([C@@H]6C[C@@H](C)CN6C(=O)[C@H](NC(=O)OC)c6ccccc6)[nH]5)cc4)ccc3c2)[nH]1)C(C)C [Example 159] | – | 0.006 | – | 1 to 44 | – | 0.001 to 0.99 | > 44 | – | – | – | 0.001 to 0.999 | 0.001 to 0.999 | 0.001 to 0.99 | – | – | – | – |
